Assay results from ChEMBL document CHEMBL1143789, “Synthesis and biological study of medicinally important Mannich bases derived from 4-(dimethylamino)-1,4,4a,5,5a,6,11,12a-octahydro-3,6,10,12,12a pentahydroxy naphthacene carboxamide” (Bioorg Med Chem Lett, 2007).

Columns and labels:
Salmonella enteritidis [1] = test: Antibacterial activity against Salmonella enteritidis at 20 mg/ml by paper disc method; assay type: functional, Salmonella enterica subsp. enterica serovar Enteritidis; details: Salmonella enterica; read-out: IZ
Salmonella enteritidis [2] = test: Antibacterial activity against Salmonella enteritidis at 30 mg/ml by paper disc method; assay type: functional, Salmonella enterica subsp. enterica serovar Enteritidis; details: Salmonella enterica; read-out: IZ
Salmonella enteritidis [3] = test: Antibacterial activity against Salmonella enteritidis at 40 mg/ml by paper disc method; assay type: functional, Salmonella enterica subsp. enterica serovar Enteritidis; details: Salmonella enterica; read-out: IZ
Pasteurella multocida [4] = test: Antibacterial activity against Pasteurella multocida at 20 mg/ml by paper disc method; assay type: functional; details: read-out: IZ
Pasteurella multocida [5] = test: Antibacterial activity against Pasteurella multocida at 30 mg/ml by paper disc method; assay type: functional; details: read-out: IZ
Pasteurella multocida [6] = test: Antibacterial activity against Pasteurella multocida at40 mg/ml by paper disc method; assay type: functional
Mus musculus [7] = test: Toxicity in mouse at 1600 mg/kg, po after 72 hrs; assay type: organism-based; set-up: dose 1600 mg/kg, route oral; details: in vivo
Mus musculus [8] = test: Toxicity in mouse at 1000 mg/kg, ip after 72 hrs; assay type: organism-based; set-up: dose 1000 mg/kg, route intraperitoneal; details: in vivo

Compound | zone of inhibition at 20000 µg/mL (Salmonella enteritidis [1]) | zone of inhibition at 30000 µg/mL (Salmonella enteritidis [2]) | zone of inhibition at 40000 µg/mL (Salmonella enteritidis [3]) | zone of inhibition at 20000 µg/mL (Pasteurella multocida [4]) | zone of inhibition at 30000 µg/mL (Pasteurella multocida [5]) | inhibition zone (IZ) (Pasteurella multocida [6]) | Activity (Mus musculus [7]) | Activity (Mus musculus [8])
CN(C)C1C(O)=C(C(=O)NCNc2ccc(S(=O)(=O)Nc3ncccn3)cc2)C(=O)C2(O)C(O)=C3C(=O)c4c(O)cccc4C(C)(O)C3CC12 (configuration not stated) | 20 mm | 20.9 mm | 21.2 mm | 20.4 mm | 20.8 mm | 21.86 mm | Non-toxic | Toxic
CN(C)C1C(O)=C(C(=O)NCNc2ccc(S(N)(=O)=O)cc2)C(=O)C2(O)C(O)=C3C(=O)c4c(O)cccc4C(C)(O)C3CC12 (configuration not stated) | 14.7 mm | 15 mm | 16 mm | 28.4 mm | 28.6 mm | 29.08 mm | Non-toxic | Toxic
COc1ncnc(NS(=O)(=O)c2ccc(NCNC(=O)C3=C(O)C(N(C)C)C4CC5C(=C(O)C4(O)C3=O)C(=O)c3c(O)cccc3C5(C)O)cc2)c1OC (configuration not stated) | 15 mm | 15.2 mm | 15.5 mm | 22.1 mm | 23.3 mm | 24.4 mm | Non-toxic | Toxic
CC(=O)NS(=O)(=O)c1ccc(NCNC(=O)C2=C(O)C(N(C)C)C3CC4C(=C(O)C3(O)C2=O)C(=O)c2c(O)cccc2C4(C)O)cc1 (configuration not stated) | – | – | – | 26.2 mm | 27.3 mm | 28.3 mm | Non-toxic | Toxic
Cc1cc(NS(=O)(=O)c2ccc(NCNC(=O)C3=C(O)C(N(C)C)C4CC5C(=C(O)C4(O)C3=O)C(=O)c3c(O)cccc3C5(C)O)cc2)no1 (configuration not stated) | 21.1 mm | 21.2 mm | 22.1 mm | 21.3 mm | 22 mm | 23.2 mm | Non-toxic | Toxic
CN(C)C1C(O)=C(C(=O)NCNc2ccc(S(=O)(=O)NC(=N)N)cc2)C(=O)C2(O)C(O)=C3C(=O)c4c(O)cccc4C(C)(O)C3CC12 (configuration not stated) | 13.2 mm | 13.9 mm | 14.2 mm | 24.1 mm | 24.3 mm | 25.2 mm | Non-toxic | Toxic
CC(=O)NS(=O)(=O)c1ccc(N)cc1 [SULFACETAMIDE] | – | – | – | 20.5 mm | 21.2 mm | 22.15 mm | – | –
Nc1ccc(S(=O)(=O)Nc2ncccn2)cc1 [SULFADIAZINE] | 10 mm | 15 mm | 20 mm | 28 mm | 30 mm | 39 mm | – | –
N=C(N)NS(=O)(=O)c1ccc(N)cc1 [SULFAGUANIDINE] | 10 mm | 15 mm | 18 mm | 20 mm | 25 mm | 25 mm | – | –
Cc1cc(NS(=O)(=O)c2ccc(N)cc2)no1 [SULFAMETHOXAZOLE] | 15 mm | 15 mm | 18 mm | 24 mm | 26 mm | 28 mm | – | –
Nc1ccc(S(N)(=O)=O)cc1 [SULFANILAMIDE] | 10 mm | 12 mm | 16 mm | 22 mm | 25 mm | 28 mm | – | –
